Data set [1] has as its system microbiota in diet-induced obese mice. Description: interventional treatment of dysbiosis with defensins in diet-induced obese mice (Example 8). Type of data set: in vivo. The text has this: Mice and diets. The experiment elucidates the effect of hBD2 and HD5 on the microbiota in diet-induced obese mice. A run-in period of 13 weeks where mice were fed a very HFD (60% energy from fat) preceded the intervention. Only mice meeting the criteria of a minimum of 12 gram weight gain (approximately 50% of initial bodyweight) during the run-in period were included in the final analyses. […] They were exposed to all experimental tests, but excluded from the analyses.
Treatment regimen. Before the intervention all mice were MR scanned. Cages of mice were allocated to experimental groups based on their fat mass. All subsequent measures were paired with data from the same mouse before the intervention. A LFD (low fat diet) reference group was running in parallel. As controls for the intervention 2 additional groups were included: 1 very HFD and 1 LFD. Experimental mice stayed on the very HFD during the intervention (FIG. 3). The mice were on the experimental diet for 10 weeks. They were co-housed throughout the experiment, 4 mice per cage, 3 cages per group. All tests ran over 3 days, 1 cage per group per day.
Tests. Microbial analyses were carried out to study the microbiota of the intestine.
Longitudinal 16S characterization was conducted on 4 paired samples from 60 mice, 240 samples in total. Each mouse was sampled prior to diet change, 1 week post diet change, 4 weeks post diet change and at termination, thus ensuring a thorough characterization of the faecal microbiota as a result of defensin treatment.

In data set [2] the test system is Dextran Sodium Sulphate induced colitis. Description: prophylactic murine 7-day Dextran Sodium Sulphate induced colitis model, oral and s.c. hBD2 versus oral cyclosporine (Example 4). Type of data set: in vivo, C57BL/6 mice. The text has this:
Anti-inflammatory effect of oral and s.c. administration of hBD2 versus oral cyclosporine in a prophylactic, murine, 7-day, Dextran Sodium Sulphate induced colitis model.
80 male C57BL/6 mice housed in groups of five per cage were allocated to 7 different treatment groups. All animals had their drinking water supplemented with DSS 3% for 7 days to induce colitis characterized by epithelial damage, disruption of crypt architecture and a moderate inflammation characterized by accumulation of mononuclears and neutrophils in mucosa and submucosa. The animals were treated with oral hBD2 dosed at 0.6 mg/kg BID or 0.4 mg/kg TID; hBD2 dosed s.c. at 0.15 mg/kg BID or 0.1 mg/kg TID; or cyclosporine 50 mg/kg OD or water for 7 days.
Clinical assessment was conducted as per a scoring system (0=no blood in stool; 1=evidence of blood in stool and 2=severe bleeding). The animals were sacrificed on day 7 and colon removed for histological assessment.

The test system of data set [3] is house dust mite model of allergic asthma. In words: therapeutic intranasal versus oral hBD2 in murine house dust mite model of allergic asthma (Example 10). Type of data set: in vivo, BALB/c mice. The following applies: hBD2, both dosing routes.
Data set [4] has as its system acute graft versus host disease following stem cell transplantation. Description: prophylactic oral HD5 or hBD-2 in murine model of acute graft versus host disease (Example 15). The class given is in vivo, BALB/c mice. The protocol: To determine and assess the efficacy of prophylactic treatment with oral HD5 in a murine model of acute graft versus host disease following stem cell transplantation.
Treatment regime: 22 female BALB/c mice were irradiated with 4.5 Gy (2×498 sec) at intervals of at least 4 hours on day 0. Bone marrow was harvested: hind limbs harvested from 2 female WT C57BL/6 mice aseptically. Skeletal muscle was removed and epiphysis cut away. Lumen of bone flushed with PBS and cells pelleted and taken up. Harvest of T-cells: spleens from 2 female WT C57BL/6 mice were meshed through a […] cell strainer into a PBS filled dish. Cells were taken up in PBS and transferred into a 50 mL falcon tube and spun down. Cells were taken up in 1 mL PBS and 20 μL of CD4 microbead+20 μL CD8 microbeads per spleen added for incubation for 20 min at 4 degrees C. Cells were washed with PBS and applied to MACS separation in order to positively select CD4+ and CD8+ cells. Positively selected T-cells were counted and taken up. Transplantation: directly after the second irradiation, all WT BALB/c recipient mice were injected with 5×1.000.000 BM cells (50 μL) i.v. into the retroorbital venous plexus under isoflurane anesthesia. 22 BALB/c mice were treated with 1.2 mg of HD5/kg BW/day; 1.2 mg of hBD-2/kg BW/day or 100 μL of PBS per day vial oral gavage from day 0-10.
Survival was monitored for 60 days.

Data set [5] deals with Dextran Sodium Sulphate induced colitis. Description: prophylactic murine 10-day oral Dextran Sodium Sulphate induced colitis model, oral hBD2 versus oral prednisolone (Example 2). The class given is in vivo, C57BL/6 mice. The following applies: for histological score, compared with prednisolone: all three oral hBD2 dose groups versus prednisolone 1 mg/kg; for body weight loss / body weight change: all three oral hBD2 dose levels (0.05, 0.5, 5 mg/kg twice per day), 10 days; for histological score: versus vehicle, Prednisolone 1 mg/kg twice per day p.o., oral hBD2 all doses. As to the method:
Anti-inflammatory effect of oral administration of hBD2 versus oral prednisolone in a prophylactic murine, 10-day, oral Dextran Sodium Sulphate induced colitis model.
50 male C57BL/6 mice housed in groups of five per cage were allocated to 5 different treatment groups. All animals had their drinking water supplemented with DSS 2% for 7 days to induce colitis resulting in significant inflammation and injury of the colonic tissue. The animals were treated with oral hBD2 dosed at three different dose levels twice per day or prednisolone 1 mg/kg twice per day or PBS as vehicle for 10 days.
A disease activity index (DAI) scoring system was applied for clinical assessment (FIG. 7). The animals were sacrificed on day 10 and colon removed for histological assessment employing a histological scoring system (FIG. 8).

[6] abbreviates: all four hBD2 dosing groups (oral 0.6 mg/kg BID, 0.4 mg/kg TID; s.c. 0.15 mg/kg BID, 0.1 mg/kg TID), cyclosporine 50 mg/kg OD, 7 days.

Entries after “also recorded” stand apart in the source; their conditions may differ. No end group written: not given here.

Turning to “human beta defensin 2 (GIGDPVTCLKSGAICHPVFCPRRYKQIGTCGLPGTKCCKKP; not fully specified (bridges); ends and bridges not checked; listed as Homo sapiens) [hBD2]”, the weight gain entry in data set [1] (HFD plus hBD2, first 4 weeks post dietary intervention, versus standard HFD) was “tended to gain less weight”; in data set [1] (HFD plus hBD2, week 4 to end of study period), “gained similar weight as the standard HFD group”. The “abundance of Alloprevotella” value in data set [1] (colon) is “no influence on Alloprevotella abundance”. The “relative abundance of Bifidobacteriaceae” value was “dramatically and statistically significant increased” in data set [1] (colon); “dramatically and statistically significant increased” in data set [1] (small intestine). Moreover, the “clinical score, s.c. versus oral dosing” value in data set [2] (FIG. 15) is recorded as “seemed more efficacious than oral dosing”. Moreover, in data set [2] (setting [6]), the clinical scores entry is reported as “highly statistically significant improvement; also recorded: statistical significant effect of hBD2 on par with cyclosporine”. Also, the “maintenance of colon length” value in data set [2] (setting [6]) is “highly statistically significant improvement; also recorded: statistical significant effect of hBD2 on par with cyclosporine”. Moreover, in data set [2] (both administration routes), the “clinical score, TID versus BID dosing” value is listed as “more efficacious than BID dosing; also recorded: superiority of TID dosing of hBD2 over BID dosing”. The “IL-4 level in lung tissue homogenates” value in data set [3] is on record as “significant effects”. In addition, in data set [3], the “IL-5 level in lung tissue homogenates” value is “significant effects”. Also, the mortality entry in data set [4] (FIG. 58, oral treatment for 10 days from day of stem cell transplantation) was “significant reduction of mortality”. In data set [4] (oral 1.2 mg/kg/day day 0-10, six out of eight PBS mice died), the “treated animals that had died by day 60” value is given as “none”. Besides, the “disease activity index score, compared with prednisolone” value in data set [5] (FIG. 11, orally administered hBD2 versus prednisolone 1 mg/kg) is recorded as “statistically significant superiority”. Further, the “histological score, compared with prednisolone” value is given as “significantly better than Prednisolone” in data set [5] and “on par with prednisolone 1 mg/kg” in data set [5] (listed as HBD2). For the same substance, the “body weight loss / body weight change” value in data set [5] is reported as “dramatically reduced loos of body weight”; in data set [5] (listed as HBD2hBD2) it was “weight preserving effect”. Further, the body weight loss entry in data set [5] (high dose group hBD2 5 mg/kg BID oral) was “most pronounced”. For the same substance, the “disease activity index (DAI)” value was “significantly better effect on DAI” in data set [5] (high dose hBD2 5 mg/kg BID oral, compared with lower doses and Prednisolone); “statistically significant effect on DAI on par with Prednisolone” in data set [5] (two lower dose levels of oral hBD2 (0.05, 0.5 mg/kg twice per day)). Moreover, the histological score entry is “statistically significant effect on histological score” in data set [5] and “statistical significant effect” in data set [5] (listed as HBD2).

(Values after patent publication US20200291082A1, “PREVENTION AND TREATMENT OF GRAFT-VERSUS-HOST-DISEASE WITH DEFENSINS” (priority 2017, published 2020).)
